Data on eleven molecules can be found in patent publication US11447500B2, “Thienopyridine derivatives and pharmaceutical composition comprising same” (WELLMARKER BIO CO., LTD., priority 2018, dated 2022).

One test concerns the target T1, RON kinase (Homo sapiens, UniProt Q04912).
T1 construct: purchased Carna Bioscience
The experiment in a line: RON kinase enzyme inhibitory activity, FRET (TR-FRET) technique. It counts as biochemical. As to conditions: 60 min reaction. Here is the method: The enzyme inhibitory activity (IC50) of the thienopyridine derivative was measured using FRET (fluorescence resonance energy transfer) technique. RON kinase (Carna Bioscience) was diluted with a kinase assay buffer (50 mM HEPES pH 7.5, 1 mM EGTA, 10 mM MgCl2, 2 mM DTT, and 0.01% Tween-20) to a concentration of 2× (0.4 nM) the final reaction concentration and the dilution was added to a 384-well plate at 5 μL/well. As sample compounds, the compounds synthesized in the examples of the present invention and the compounds of the comparative examples were used. The sample compounds were respectively dissolved in 100% DMSO to obtain 1 mM stock solutions, which were then subjected to eight 10-fold serial dilutions. The sample compounds were diluted with the kinase assay buffer to a concentration of 4× the final reaction concentration, and the dilutions were added to the 384-well plate at 2.5 μL/well. The plate was incubated at room temperature for 15 minutes. Next, 0.25 M ATP solution (Sigma Aldrich) was diluted with the kinase reaction buffer to a concentration of 4× (60 μM) the final reaction concentration, and a tyrosine peptide substrate (Perkin-Elmer) was diluted therein to a concentration of 4× (400 nM) the final reaction concentration. The dilution was added to the 384-well plate at 2.5 μL/well. Then, the 384-well plate was incubated at room temperature and the reaction was allowed to proceed for 60 minutes. After 60 minutes, EDTA (Sigma Aldrich) was diluted with TR-FRET detection buffer (Perkin-Elmer) to a concentration of 4× (40 mM) the final reaction concentration. A europium-labeled anti-phosphotyrosine antibody (Perkin-Elmer) was diluted in the above EDTA dilution to a concentration of 4× (8 nM) the final reaction concentration to prepare a stop solution of the RON kinase reaction. The stop solution was added to the 384-well plate at 10 μL/well to terminate the reaction, and the plate was incubated at room temperature for 60 minutes. Thereafter, the plate was read on Victor X5 plate reader (Perkin-Elmer). At this time, the excitation wavelength was 340 nm and the emission wavelengths were 620 nm and 665 nm. The IC50 values of the sample compounds were determined using GraphPad Prism™ 5 by expressing the emission energy at 665 nm as a function of the sample compound concentration.

Test [1] concerns RON-mutated (Δ160) HT-29 colon cancer cell line. The experiment in a line: Cell killing efficacy, trypan blue exclusion assay, HT-29. The format is cell-based. The note with it: HT29 cell, 48 hours. On the procedure: (§1) Two colon cancer cell lines, RON-activated KM12C (80015, KCLB, MEM+10% FBS) and RON-mutated (Δ160) HT-29 (30038, KCLB, RPMI+10% FBS) were prepared in 6-well plates at 5×10^4 cells/well, respectively. After 24 hours, while freshly changing the medium, the sample compounds were added to the wells at a concentration of 1 μM or 5 μM and the plates were allowed to stand for 48 hours.
(§2) As the sample compounds, the compounds synthesized in the examples of the present invention and the compounds of the comparative examples were used.
(§3) After 48 hours, the cell suspensions were collected and centrifuged (1,500 rpm, 4 min.) to obtain the cells, and live cells and dead cells were quantitated (n=2) through a trypan blue (15250-061, Gibco) exclusion assay. The statistical analysis was performed using Excel™ T-test from Microsoft.
(§4) The cell death rates of the compounds of Examples and Comparative Examples were respectively measured and the results are shown in Table 4 as relative ratios to Comparative Example 1.

In test [2] the test system is RON-activated KM12C colon cancer cell line. Kind of test: Cell killing efficacy, trypan blue exclusion assay, KM12C. It counts as cell-based. The note with it: 48 hours. Here is the method:
as §1, §2, §3, §4

Where a name gives a salt, the structure may show the parent alone.

T1 sequence (Q04912 25-1400): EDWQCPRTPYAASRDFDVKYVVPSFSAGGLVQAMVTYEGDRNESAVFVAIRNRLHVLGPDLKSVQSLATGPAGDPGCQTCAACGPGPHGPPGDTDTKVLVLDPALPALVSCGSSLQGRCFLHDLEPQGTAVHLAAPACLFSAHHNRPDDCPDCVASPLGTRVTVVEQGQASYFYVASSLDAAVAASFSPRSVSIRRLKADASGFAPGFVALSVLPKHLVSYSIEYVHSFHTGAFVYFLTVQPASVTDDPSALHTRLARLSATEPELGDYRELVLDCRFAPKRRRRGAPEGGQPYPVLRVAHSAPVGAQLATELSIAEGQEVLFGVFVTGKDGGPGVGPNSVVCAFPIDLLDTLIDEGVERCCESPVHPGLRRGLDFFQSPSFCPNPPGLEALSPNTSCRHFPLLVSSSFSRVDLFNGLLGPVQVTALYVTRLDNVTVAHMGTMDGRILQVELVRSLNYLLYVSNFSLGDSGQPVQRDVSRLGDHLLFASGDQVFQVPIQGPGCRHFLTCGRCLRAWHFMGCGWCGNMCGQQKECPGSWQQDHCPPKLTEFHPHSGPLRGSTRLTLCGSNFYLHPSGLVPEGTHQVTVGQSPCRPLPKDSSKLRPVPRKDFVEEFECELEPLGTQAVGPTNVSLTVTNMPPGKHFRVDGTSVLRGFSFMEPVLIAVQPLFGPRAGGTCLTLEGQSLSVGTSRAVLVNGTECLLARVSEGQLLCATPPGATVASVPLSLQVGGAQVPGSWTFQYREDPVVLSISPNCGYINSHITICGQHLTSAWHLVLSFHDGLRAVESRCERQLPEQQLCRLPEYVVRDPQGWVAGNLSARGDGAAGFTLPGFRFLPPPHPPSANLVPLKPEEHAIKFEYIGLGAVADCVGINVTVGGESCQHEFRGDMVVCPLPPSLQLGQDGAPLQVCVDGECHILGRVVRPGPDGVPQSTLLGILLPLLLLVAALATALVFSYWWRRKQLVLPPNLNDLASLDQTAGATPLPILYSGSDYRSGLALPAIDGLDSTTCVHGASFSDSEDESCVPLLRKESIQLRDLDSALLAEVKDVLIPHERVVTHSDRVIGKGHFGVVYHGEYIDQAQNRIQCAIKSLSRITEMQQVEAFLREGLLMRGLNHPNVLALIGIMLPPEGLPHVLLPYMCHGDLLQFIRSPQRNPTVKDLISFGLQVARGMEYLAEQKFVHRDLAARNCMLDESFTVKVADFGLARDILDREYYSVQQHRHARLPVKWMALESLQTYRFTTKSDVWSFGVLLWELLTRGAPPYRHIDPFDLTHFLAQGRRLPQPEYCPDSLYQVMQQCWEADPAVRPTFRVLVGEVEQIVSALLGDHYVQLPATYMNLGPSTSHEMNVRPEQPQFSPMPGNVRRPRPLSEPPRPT

As a reminder, the IC50 is the concentration needed to halve the response being measured. `CCOc1ccn(-c2ccc(Cl)cc2)c(=O)c1C(=O)Nc1ccc(Oc2ccnc3cc(-c4ccc(CNCCOC)cn4)sc23)c(F)c1.Cl` [Example 8, 1-(4-chlorophenyl)-4-ethoxy-N-(3-fluoro-4-{[2-(5-{[(2-methoxyethyl)amino]methyl}pyridin-2-yl)thieno[3,2-b]pyridin-7-yl]oxy}phenyl)-2-oxo-1,2-dihydropyridine-3-carboxamide Hydrochloride] registered an IC50 at RON kinase of 10 pM. In addition, the “Cell death rate (Relative to Comp. Ex. 1)” value in test [1] (1 μM) was “x 2.24”; in test [1] (5 μM), “x 2.52”; in test [2] (1 μM), “x 0.92”; in test [2] (5 μM), “x 1.19”.

`COCCNCc1ccc(-c2cc3nccc(Oc4ccc(NC(=O)c5c(OC)ccn(-c6ccccc6)c5=O)cc4F)c3s2)nc1.Cl` [Example 3, N-(3-fluoro-4-{[2-(5-{[(2-methoxyethyl)amino]methyl}pyridin-2-yl)thieno[3,2-b]pyridin-7-yl]oxy}phenyl)-4-methoxy-2-oxo-1-phenyl-1,2-dihydropyridine-3-carboxamide Hydrochloride] gave an IC50 against RON kinase of 420 pM. The “Cell death rate (Relative to Comp. Ex. 1)” value is “x 1.80” in test [1] (1 μM), “x 2.22” in test [1] (5 μM), “x 0.66” in test [2] (1 μM) and “x 1.26” in test [2] (5 μM).

`COCCNCc1ccc(-c2cc3nccc(Oc4ccc(NC(=O)c5c(OC)ccn(-c6ccc(F)cc6)c5=O)cc4Cl)c3s2)nc1.Cl` [Example 9, N-(3-chloro-4-{[2-(5-{[(2-methoxyethyl)amino]methyl}pyridin-2-yl)thieno[3,2-b]pyridin-7-yl]oxy}phenyl)-1-(4-fluorophenyl)-4-methoxy-2-oxo-1,2-dihydropyridine-3-carboxamide Hydrochloride] showed an IC50 at RON kinase of 80 pM. For the same molecule, the “Cell death rate (Relative to Comp. Ex. 1)” value in test [1] (1 μM) was “x 4.08”; in test [1] (5 μM), “x 3.53”; in test [2] (1 μM), “x 2.26”; in test [2] (5 μM), “x 2.87”.

With `CCOc1ccn(-c2ccc(F)cc2)c(=O)c1C(=O)Nc1ccc(Oc2ccnc3cc(-c4ccc(CNCCOC)cn4)sc23)c(F)c1.Cl` [Example 7, 4-ethoxy-N-(3-fluoro-4-{[2-(5-{[(2-methoxyethyl)amino]methyl}pyridin-2-yl)thieno[3,2-b]pyridin-7-yl]oxy}phenyl)-1-(4-fluorophenyl)-2-oxo-1,2-dihydropyridine-3-carboxamide Hydrochloride], at RON kinase, half-maximal inhibition (IC50) required 280 pM. Besides, the “Cell death rate (Relative to Comp. Ex. 1)” value in test [1] (1 μM) was “x 2.97”; in test [1] (5 μM), “x 2.90”; in test [2] (1 μM), “x 2.38”; in test [2] (5 μM), “x 1.32”.

`COCCNCc1ccc(-c2cc3nccc(Oc4ccc(NC(=O)c5c(C)cnn(-c6ccccc6)c5=O)cc4F)c3s2)nc1.Cl` [Example 18, N-(3-fluoro-4-{[2-(5-{[(2-methoxyethyl)amino]methyl}pyridin-2-yl)thieno[3,2-b]pyridin-7-yl]oxy}phenyl)-5-methyl-3-oxo-2-phenyl-2,3-dihydropyridazine-4-carboxamide Hydrochloride] yielded an IC50 against RON kinase of 770 pM. In addition, the “Cell death rate (Relative to Comp. Ex. 1)” value in test [1] (1 μM) is recorded as “x 1.33”; in test [1] (5 μM), “x 1.37”; in test [2] (1 μM), “x 0.56”; in test [2] (5 μM), “x 1.09”.

For the molecule `COCCNCc1ccc(-c2cc3nccc(Oc4ccc(NC(=O)c5cccn(-c6ccc(F)cc6)c5=O)cc4F)c3s2)nc1.Cl` [Example 4, N-(3-fluoro-4-{[2-(5-{[(2-methoxyethyl)amino]methyl}pyridin-2-yl)thieno[3,2-b]pyridin-7-yl]oxy}phenyl)-1-(4-fluorophenyl)-2-oxo-1,2-dihydropyridine-3-carboxamide Hydrochloride], the IC50 against RON kinase was 680 pM. In addition, the “Cell death rate (Relative to Comp. Ex. 1)” value is given as “x 3.51” in test [1] (1 μM), “x 3.63” in test [1] (5 μM), “x 0.59” in test [2] (1 μM) and “x 0.80” in test [2] (5 μM).

Take `CCOc1ccn(-c2ccc(F)cc2)c(=O)c1C(=O)Nc1ccc(Oc2ccnc3cc(-c4ccc(CN(C)CCOC)cn4)sc23)c(F)c1` [Example 30, 4-ethoxy-N-(3-fluoro-4-{[2-(5-{[(2-methoxyethyl)(methyl)amino]methyl}pyridin-2-yl)thieno[3,2-b]pyridin-7-yl]oxy}phenyl)-1-(4-fluorophenyl)-2-oxo-1,2-dihydropyridine-3-carboxamide Hydrochloride]: the IC50 against RON kinase turned out to be 880 pM. Moreover, the “Cell death rate (Relative to Comp. Ex. 1)” value in test [1] (1 μM) is on record as “x 1.34”; in test [1] (5 μM), “x 1.07”; in test [2] (1 μM) it was “x 2.48”; in test [2] (5 μM), “x 2.06”.

`COCCNCc1ccc(-c2cc3nccc(Oc4ccc(NC(=O)c5c(OC)ccn(-c6ccc(F)cc6)c5=O)cc4F)c3s2)nc1.Cl` [Example 2, N-(3-fluoro-4-{[2-(5-{[(2-methoxyethyl)amino]methyl}pyridin-2-yl)thieno[3,2-b]pyridin-7-yl]oxy}phenyl)-1-(4-fluorophenyl)-4-methoxy-2-oxo-1,2-dihydropyridine-3-carboxamide Hydrochloride] registered an IC50 on RON kinase of 100 pM. Further, the “Cell death rate (Relative to Comp. Ex. 1)” value in test [1] (1 μM) was “x 0.62”; in test [1] (5 μM) it was “x 1.15”; in test [2] (1 μM), “x 1.33”; in test [2] (5 μM), “x 0.74”.

`COc1ccc2c(Oc3ccc(NC(=O)c4c(C)n(CC(C)(C)O)n(-c5ccccc5)c4=O)cc3F)ccnc2c1` [Comp. Ex. 2, N-(3-fluoro-4-(7-methoxyquinolin-4-yloxy)phenyl)-1-(2-hydroxy-2-methylpropyl)-5-methyl-3-oxo-2-phenyl-2,3-dihydro-1H-pyrazole-4-carboxamide, reference compound] came in with an IC50 against RON kinase of 2890 pM. The “Cell death rate (Relative to Comp. Ex. 1)” value is given as “x 0.59” in test [1] (1 μM), “x 0.32” in test [1] (5 μM), “x 0.38” in test [2] (1 μM) and “x 0.31” in test [2] (5 μM).

Molecule `CCOc1ccn(-c2ccc(Cl)cc2)c(=O)c1C(=O)Nc1ccc(Oc2ccnc3cc(-c4ccc(CN5CCOCC5)cn4)sc23)c(F)c1` [Example 35, 1-(4-chlorophenyl)-4-ethoxy-N-[3-fluoro-4-({2-[5-(morpholinomethyl)pyridin-2-yl]thieno[3,2-b]pyridin-7-yl}oxy)phenyl]-2-oxo-1,2-dihydropyridine-3-carboxamide Hydrochloride] had a concentration for half-maximal inhibition (IC50) against RON kinase of 2550 pM.

Regarding `COCCNCc1ccc(-c2cc3nccc(Oc4ccc(NC(=O)c5c(OC)ccn(-c6ccc(F)cc6)c5=O)cc4)c3s2)nc1.Cl` [Example 11, 1-(4-fluorophenyl)-4-methoxy-N-(4-{[2-(5-{[(2-methoxyethyl)amino]methyl}pyridin-2-yl)thieno[3,2-b]pyridin-7-yl)oxy)phenyl)-2-oxo-1,2-dihydropyridine-3-carboxamide Hydrochloride], the concentration for half-maximal inhibition (IC50) against RON kinase turned out to be 260 pM. Further, the “Cell death rate (Relative to Comp. Ex. 1)” value in test [1] (1 μM) is recorded as “x 1.16”; in test [1] (5 μM), “x 0.94”; in test [2] (1 μM), “x 0.99”; in test [2] (5 μM), “x 1.65”.
